Assay results as given in patent US7829114B2, “Capsules containing aqueous fill compositions stabilized with derivatized cyclodextrin” (CyDex Pharmaceuticals, Inc., priority 2002, dated 2010).
Like-named read-outs stand apart in the source and are kept apart here.

Columns and labels:
[1] = H.S.I.T. with SAE-CD, PVP and water fill compositions; format: physicochemical
Description: FIGS. 10a-10i depict ternary graphs correlating the concentration of SAE-CD, water and PVP in a fill composition to the H.S.I.T. rating of a soft shell capsule exposed to the fill composition. Aqueous fill solutions comprising differing amounts of PVP, SAE-CD and water were prepared. The stability tests were conducted as described below. The capsules described herein were used: SHIONOGI HGC (hard gelatin capsule) (FIG. 10A), […] HPMC hard shell capsule (FIG. 10b), SHIONOGI HPMC hard shell capsule (FIG. 10C), […] HGC (FIG. 10D), VEGAGEL hard shell capsule (FIG. 10E), hydrophilic fill-grade CARDINAL SGC (soft gelatin capsule) (FIG. 10f), lipophilic fill-grade CARDINAL SGC (FIG. 10g), hydrophilic fill-grade BANNER SGC (FIG. 10h), and lipophilic fill-grade BANNER SGC (FIG. 10i). No other shell-stabilizing material(s) was (were) included in the fill compositions evaluated. The results varied according to the capsule used. Stabilized aqueous fill composition-containing capsule formulations can be achieved with each capsule if one or more of the following fill compositions detailed below are used. • 1. Water comprises ≧55% of the fill composition, and the combination of SAE-CD, PVP, one or more optional excipients and one or more optional active agents comprises ≧45% of the fill composition; wherein SAE-CD can comprise up to 90% (85%, 83%, or 80%) of the weight of the fill composition, and PVP can comprise less than 90%, respectively, of the weight of the fill composition, provided that the fill composition comprises >≧35% PVP when SAE-CD comprises […]; ≦15% of the weight of the fill composition, and wherein both PVP (preferably water soluble or water swellable) and SAE-CD are present. • 2. Water comprises ≦45% of the fill composition, and the combination of SAE-CD, PVP, one or more optional excipients and one or more optional active agents comprises ≧55% of the fill composition; wherein SAE-CD can comprise up to 90% (85%, 83%, or 80%) of the weight of the fill composition, and PVP can comprise less than 90%, respectively, of the weight of the fill composition, provided that the fill composition comprises ≧35% PVP when SAE-CD comprises ≦20% of the weight of the fill composition, and wherein both PVP (preferably water soluble or water swellable) and SAE-CD are present. • 3. […]

[2] = Shell stability on exposure to aqueous fill composition (half-shell integrity test, H.S.I.T.); settings: for content in fill composition for an HSIT rating of at least 3: PVP and water fill, lipophilic fill-grade BANNER SGC
Description: A study was conducted to determine whether or not complexation of a drug to the SAE-CD alters the ability of the SAE-CD to stabilize the capsule shell against dissolution, erosion, swelling or degradation caused by water in the fill composition enclosed within the capsule shell. Banner's hydrophilic, HFB, and lipophilic, LFB, air fill size 35 oval gelatin capsules were used in this study, which was performed as described below. […] The SAE-CD was slowly added to the water while it was stirring and on a hot plate. Agitation continued until all the SAE-CD dissolved. The SAE-CD was divided by weighing in equal amounts into nine vials (one for each drug). […] The amount of drug added produced a composition that contained a normal dose of drug in 1 gram. The vials were agitated and heated until a solution was obtained or the active was uniformly suspended. […]
Method A: Half-Shell integrity Test (H.S.I.T.)
In a closed container, a portion of a capsule shell is exposed to an aqueous fill composition comprising a known amount of derivatized cyclodextrin, water and optionally one or more other excipients. Observation of changes, or lack thereof, on the exposed portion's size, appearance, shape, dissolution, erosion, degradation, hardness, and/or translucence are recorded periodically over time. A rating scale is used to quantify the overall performance of the capsule portion during the test.

[3] = SHIONOGI HPMC hard shell capsule
[4] = 40% wt. cyclodextrin derivative in water, LFB
[5] = 50% wt. cyclodextrin derivative in water, LFB
[6] = 55% wt. cyclodextrin derivative in water, LFB
[7] = 60% wt. cyclodextrin derivative in water, LFB

content in fill composition for a stabilized capsule formulation [2]	Increase in shell size [2, 4]	Observations [2, 4]	Time for failure [2, 4]	Increase in shell size [2, 5]	Observations [2, 5]	Time for failure [2, 5]	Increase in shell size [2, 6]	Observations [2, 6]	Time for failure [2, 6]	Increase in shell size [2, 7]	Observations [2, 7]	Time for failure [2, 7]	Molecule	content in fill composition for an HSIT rating of at least 3 ([1]; SHIONOGI HGC)	content in fill composition for an HSIT rating of at least 3 [1, 3]	content in fill composition for a stabilized capsule formulation ([2]; SAE-CD, PEG and water fill, LFB)	content in fill composition for an HSIT rating of at least 3 ([2]; SAE-CD)
–	–	–	–	–	–	–	–	–	–	–	–	–	O [Water]	≦54%	≦60%	≦50%	≦54%
≧18%	2.5× × original	shape intact	3 days	2.5 × original	Deformed	7 days	2 × original	Deformed	10 days	no change in length	Slight	≧21 days	sulfobutyl ether cyclodextrin [SAE-CD]	≧6%	≧6%	–	≧6%
